{"source": "ChEMBL document CHEMBL4421737", "about": "“D-3-phosphoglycerate dehydrogenase allosteric inhibitor and use thereof” (2018)", "key": {"DLD-1": {"test_system": "DLD-1", "assay": "Cytotoxicity against human DLD1 cells assessed as reduction in cell viability incubated for 72 hrs by MTT assay", "assay_type": "functional, cell-based", "details": "DLD-1, 72 h"}, "HCC70": {"test_system": "HCC70", "assay": "Cytotoxicity against human HCC70 cells assessed as reduction in cell viability incubated for 72 hrs by MTT assay", "assay_type": "functional, cell-based", "details": "HCC70, 72 h"}, "MDA-MB-468 [1]": {"test_system": "MDA-MB-468", "assay": "Antitumor activity against human MDA-MB-468 cells xenografted in NOD.CB17-Prkdc scid/J mouse assessed as inhibition of tumor growth at 20 mg/kg/day measured every two days up to 70 days post treatment initiation", "assay_type": "functional, organism-based"}, "MDA-MB-468 [2]": {"test_system": "MDA-MB-468", "assay": "Induction of cell cycle arrest in human MDA-MB-468 cells assessed as accumulation at G0/G1 phase at 2.5 to 40 uM incubated for 24 hrs by propidium iodide staining based flow cytometry", "assay_type": "functional"}, "MDA-MB-231": {"test_system": "MDA-MB-231", "assay": "Cytotoxicity against human MDA-MB-231 cells assessed as reduction in cell viability incubated for 72 hrs by MTT assay", "assay_type": "functional, cell-based", "details": "MDA-MB-231, 72 h"}, "ZR-75-1": {"test_system": "ZR-75-1", "assay": "Cytotoxicity against human ZR-75-1 cells assessed as reduction in cell viability incubated for 72 hrs by MTT assay", "assay_type": "functional, cell-based", "details": "ZR-75-1, 72 h"}, "MDA-MB-468 [3]": {"test_system": "MDA-MB-468", "assay": "Cytotoxicity against human MDA-MB-468 cells assessed as reduction in cell viability incubated for 72 hrs by MTT assay", "assay_type": "functional, cell-based", "details": "MDA-MB-468, 72 h"}, "MCF-10A": {"test_system": "MCF-10A", "assay": "Cytotoxicity against human MCF10A cells assessed as reduction in cell viability incubated for 72 hrs by MTT assay", "assay_type": "cell-based"}, "MDA-MB-468 [4]": {"test_system": "MDA-MB-468", "assay": "Antitumor activity against human MDA-MB-468 cells xenografted in NOD.CB17-Prkdc scid/J mouse assessed as inhibition of tumor growth at 20 mg/kg/day co-treated with 2.5mg/kg/4day doxorubicin measured every two days up to 11 days post treatment initiation relative to doxorubicin alone", "assay_type": "functional"}, "MCF7": {"test_system": "MCF7", "assay": "Cytotoxicity against human MCF7 cells assessed as reduction in cell viability incubated for 72 hrs by MTT assay", "assay_type": "functional, cell-based", "details": "MCF7, 72 h"}, "MDA-MB-468 [5]": {"test_system": "MDA-MB-468", "assay": "Antitumor activity against human MDA-MB-468 cells xenografted in NOD.CB17-Prkdc scid/J mouse assessed as inhibition of tumor growth at 20 mg/kg/day co-treated with 2.5mg/kg/4day doxorubicin measured every two days up to 11 days post treatment initiation relative to compound alone", "assay_type": "functional"}, "MDA-MB-468 [6]": {"test_system": "MDA-MB-468", "assay": "Induction of cell cycle arrest in human MDA-MB-468 cells assessed as accumulation at G0/G1 phase at 10 to 160 uM incubated for 24 hrs by propidium iodide staining based flow cytometry", "assay_type": "functional"}}, "note": "Activity calls are given as the source filed them. The rule behind the calls is not given here."}
{"smiles": "O=C(N/N=C/c1cc([N+](=O)[O-])ccc1O)c1ccc(O)cc1O", "values": [{"measurement": "EC50", "setting": "DLD-1", "result": 18.3, "unit": "µM"}, {"measurement": "EC50", "setting": "HCC70", "result": 10.8, "unit": "µM"}, {"measurement": "TGI", "setting": "MDA-MB-468 [1]", "result": "Active"}, {"measurement": "Activity", "setting": "MDA-MB-468 [2]", "result": "Active"}, {"measurement": "EC50", "setting": "MDA-MB-231", "result": 27.7, "unit": "µM"}, {"measurement": "EC50", "setting": "ZR-75-1", "result": 83.4, "unit": "µM"}, {"measurement": "EC50", "setting": "MDA-MB-468 [3]", "result": 7.7, "unit": "µM"}, {"measurement": "EC50", "setting": "MCF-10A", "result": 45.8, "unit": "µM"}]}
{"smiles": "CCNC(=S)N/N=C/c1ccc(-c2ccc(C(=O)O)c(Cl)c2)o1", "values": [{"measurement": "TGI", "setting": "MDA-MB-468 [4]", "result": 41, "unit": "%"}, {"measurement": "EC50", "setting": "DLD-1", "result": 167, "unit": "µM"}, {"measurement": "EC50", "setting": "MCF7", "result": "> 200", "unit": "µM"}, {"measurement": "EC50", "setting": "HCC70", "result": 10, "unit": "µM"}, {"measurement": "TGI", "setting": "MDA-MB-468 [1]", "result": "Active"}, {"measurement": "TGI", "setting": "MDA-MB-468 [5]", "result": 41, "unit": "%"}, {"measurement": "EC50", "setting": "MDA-MB-231", "result": "> 200", "unit": "µM"}, {"measurement": "Activity", "setting": "MDA-MB-468 [6]", "result": "Active"}, {"measurement": "EC50", "setting": "ZR-75-1", "result": 125, "unit": "µM"}, {"measurement": "EC50", "setting": "MDA-MB-468 [3]", "result": 6.9, "unit": "µM"}, {"measurement": "EC50", "setting": "MCF-10A", "result": 64.7, "unit": "µM"}]}
